Measured values published in patent US7138361B2, “Herbicidal heterocycles” (E. I. du Pont de Nemours and Company, priority 2000, dated 2006).

Columns and labels:
Type in all cases: in vivo
[1] = tested on: woolly cupgrass (Eriochloa villosa); test: Test C postemergence
In short: (§1)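 Preemergence: seeds sown then treated. Postemergence: plants 2–18 cm, 1- to 4-leaf. Both with surfactant-containing solvent formulation; visual injury scored 0–100 after 12–14 d.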

[2] = tested on: johnsongrass (Sorghum halepense); test: Test C postemergence
In short: as §1

[3] = tested on: chickweed (Stellaria media); test: Test C postemergence
In short: as §1

[4] = tested on: lambsquarters (Chenopodium album); test: Test C postemergence
In short: as §1

[5] = tested on: common ragweed (Ambrosia elatior); test: Test C postemergence
In short: as §1

[6] = tested on: smallflower flatsedge (Cyperus difformis); test: Test B flooded paddy test; details: Rate 1000 g/ha, scale of 0 to 100 where 0 is no effect and 100 is complete control, visually evaluated after 13 to 15 days
In short: (§2)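 Greenhouse-held for 13 to 15 days after treatment at the 2-leaf stage, paddy-grown plants were scored visually against controls on a 0-to-100 control scale; a dash marks no test result.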

[7] = tested on: duck salad (Heteranthera limosa); test: Test B flooded paddy test; details: Rate 1000 g/ha, scale of 0 to 100 where 0 is no effect and 100 is complete control, visually evaluated after 13 to 15 days
In short: as §2

rice (Oryza saliva) = test: Test B flooded paddy test; details: Rate 1000 g/ha, scale of 0 to 100 where 0 is no effect and 100 is complete control, visually evaluated after 13 to 15 days
In short: as §2

[8] = tested on: barnyardgrass (Echinochloa crus-galli); test: Test B flooded paddy test; details: Rate 1000 g/ha, scale of 0 to 100 where 0 is no effect and 100 is complete control, visually evaluated after 13 to 15 days
In short: as §2

[9] = tested on: Italian ryegrass (Lolium multiflorum); test: Test C postemergence
In short: as §1

[10] = tested on: wheat (Triticum aestivum); test: Test C postemergence
In short: as §1

[11] = tested on: green foxtail (Setaria viridis); test: Test C postemergence
In short: as §1

[12] = tested on: canary grass (Phalaris minor); test: Test C postemergence
In short: as §1

[13] = tested on: blackgrass (Alopecurus myosuroides); test: Test C postemergence
In short: as §1

[14] = tested on: downy brome (Bromus tectorum); test: Test C postemergence
In short: as §1

[15] = tested on: winter barley (Hordeum vulgare); test: Test C postemergence
In short: as §1

wild oat (Avena fatua) = test: Test C postemergence
In short: as §1

[16] = tested on: windgrass (Apera spica-venti); test: Test C postemergence
In short: as §1

[17] = Rate 250 g/ha, scale 0 to 100 (0 no effect, 100 complete control)
[18] = Rate 500 g/ha, scale 0 to 100 (0 no effect, 100 complete control)
[19] = Rate 125 g/ha, scale 0 to 100, 0 no effect, 100 complete control

SMILES: CCC(C)c1ccn(C2CCN(c3ccc(Br)c(OC)c3)C2=O)n1 (stereo not shown) [Compound 142]
- Plant response rating, Cupgrass, Woolly ([1]; Rate 62 g/ha, scale 0 to 100): 40
- Plant response rating, Cupgrass, Woolly [1, 17]: 50
- Plant response rating, Cupgrass, Woolly [1, 18]: 70
- Plant response rating, Johnsongrass ([2]; Rate 62 g/ha, scale 0 to 100): 20
- Plant response rating, Johnsongrass [2, 17]: 30
- Plant response rating, Johnsongrass [2, 18]: 30
- Plant response rating, Johnsongrass ([2]; rate not given, scale 0 to 100): 30
- Plant response rating, Chickweed [3, 19]: 100
- Plant response rating, Lambsquarters ([4]; Rate 62 g/ha, scale 0 to 100): 80
- Plant response rating, Lambsquarters [4, 17]: 100
- Plant response rating, Lambsquarters [4, 18]: 100
- Plant response rating, Ragweed, Common ([5]; Rate 62 g/ha, scale 0 to 100): 50
- Plant response rating, Ragweed, Common [5, 17]: 90
- Plant response rating, Ragweed, Common [5, 18]: 100

SMILES: CCC(CC)c1ccn(C2CCN(c3ccc(Br)c(OC)c3)C2=O)n1 (stereo not shown) [Compound 143]
- Plant response rating, Cupgrass, Woolly ([1]; Rate 62 g/ha, scale 0 to 100): 40
- Plant response rating, Cupgrass, Woolly [1, 17]: 60
- Plant response rating, Cupgrass, Woolly [1, 18]: 70
- Plant response rating, Johnsongrass ([2]; Rate 62 g/ha, scale 0 to 100): 0
- Plant response rating, Johnsongrass [2, 17]: 30
- Plant response rating, Johnsongrass [2, 18]: 30
- Plant response rating, Johnsongrass ([2]; rate not given, scale 0 to 100): 10
- Plant response rating, Chickweed ([3]; Rate 62 g/ha, scale 0 to 100): 100
- Plant response rating, Chickweed [3, 19]: 100
- Plant response rating, Lambsquarters ([4]; Rate 62 g/ha, scale 0 to 100): 90
- Plant response rating, Lambsquarters [4, 17]: 90
- Plant response rating, Lambsquarters [4, 18]: 100
- Plant response rating, Ragweed, Common ([5]; Rate 62 g/ha, scale 0 to 100): 20
- Plant response rating, Ragweed, Common [5, 17]: 90
- Plant response rating, Ragweed, Common [5, 18]: 90

SMILES: CC(C)(C)c1ccn(C2CCN(c3cccc(C(F)(F)F)c3)C2=S)n1 (stereo not shown) [Compound 22]
- Plant response rating, Flatsedge [6]: 100
- Plant response rating, Ducksalad [7]: 100
- Plant response rating, Rice (rice (Oryza saliva)): 90
- Plant response rating, Barnyardgrass [8]: 100

SMILES: COc1cc(N2CCC(n3ccc(C(C)(C)C)n3)C2=O)ccc1Br (stereo not shown) [Compound 141]
- Plant response rating, Cupgrass, Woolly ([1]; Rate 62 g/ha, scale 0 to 100): 30
- Plant response rating, Cupgrass, Woolly [1, 17]: 50
- Plant response rating, Cupgrass, Woolly [1, 18]: 70
- Plant response rating, Johnsongrass ([2]; Rate 62 g/ha, scale 0 to 100): 20
- Plant response rating, Johnsongrass [2, 17]: 30
- Plant response rating, Johnsongrass [2, 18]: 40
- Plant response rating, Johnsongrass ([2]; rate not given, scale 0 to 100): 30
- Plant response rating, Chickweed ([3]; Rate 62 g/ha, scale 0 to 100): 90
- Plant response rating, Chickweed [3, 19]: 100
- Plant response rating, Chickweed [3, 17]: 100
- Plant response rating, Chickweed [3, 18]: 100
- Plant response rating, Lambsquarters ([4]; Rate 62 g/ha, scale 0 to 100): 70
- Plant response rating, Lambsquarters [4, 18]: 100
- Plant response rating, Ragweed, Common ([5]; Rate 62 g/ha, scale 0 to 100): 20
- Plant response rating, Ragweed, Common [5, 17]: 80
- Plant response rating, Ragweed, Common [5, 18]: 90

SMILES: COc1cc(N2CCC(n3ccc(C(C)C)n3)C2=O)ccc1Br (stereo not shown) [Compound 140]
- Plant response rating, Cupgrass, Woolly ([1]; Rate 62 g/ha, scale 0 to 100): 40
- Plant response rating, Cupgrass, Woolly [1, 17]: 70
- Plant response rating, Cupgrass, Woolly [1, 18]: 70
- Plant response rating, Johnsongrass ([2]; Rate 62 g/ha, scale 0 to 100): 30
- Plant response rating, Johnsongrass [2, 17]: 50
- Plant response rating, Johnsongrass [2, 18]: 50
- Plant response rating, Johnsongrass ([2]; rate not given, scale 0 to 100): 30
- Plant response rating, Chickweed ([3]; Rate 62 g/ha, scale 0 to 100): 90
- Plant response rating, Chickweed [3, 19]: 100
- Plant response rating, Lambsquarters ([4]; Rate 62 g/ha, scale 0 to 100): 80
- Plant response rating, Lambsquarters [4, 17]: 90
- Plant response rating, Lambsquarters [4, 18]: 100
- Plant response rating, Ragweed, Common ([5]; Rate 62 g/ha, scale 0 to 100): 50
- Plant response rating, Ragweed, Common [5, 17]: 90
- Plant response rating, Ragweed, Common [5, 18]: 90

SMILES: CCC(CC)c1ccn(C2OCN(c3cccc(OC(F)F)c3)C2=O)n1 (stereo not shown) [Compound 131]
- Plant response rating, Cupgrass, Woolly ([1]; Rate 62 g/ha, scale 0 to 100): 10
- Plant response rating, Cupgrass, Woolly [1, 17]: 70
- Plant response rating, Cupgrass, Woolly [1, 18]: 80
- Plant response rating, Johnsongrass ([2]; Rate 62 g/ha, scale 0 to 100): 0
- Plant response rating, Johnsongrass [2, 18]: 30
- Plant response rating, Johnsongrass ([2]; rate not given, scale 0 to 100): 20
- Plant response rating, Lambsquarters ([4]; Rate 62 g/ha, scale 0 to 100): 100
- Plant response rating, Lambsquarters [4, 17]: 100
- Plant response rating, Lambsquarters [4, 18]: 100

SMILES: COc1cc(N2CCC(n3ccc(C(C)(C)C)n3)C2=O)ccc1Cl (stereo not shown) [Compound 117]
- Plant response rating, Cupgrass, Woolly ([1]; Rate 62 g/ha, scale 0 to 100): 0
- Plant response rating, Cupgrass, Woolly [1, 17]: 40
- Plant response rating, Cupgrass, Woolly [1, 18]: 45
- Plant response rating, Johnsongrass ([2]; Rate 62 g/ha, scale 0 to 100): 0
- Plant response rating, Johnsongrass [2, 17]: 0
- Plant response rating, Johnsongrass [2, 18]: 0
- Plant response rating, Johnsongrass ([2]; rate not given, scale 0 to 100): 0
- Plant response rating, Ryegrass ([9]; Rate 62 g/ha, scale 0 to 100): 10
- Plant response rating, Ryegrass [9, 17]: 30
- Plant response rating, Ryegrass [9, 18]: 60
- Plant response rating, Wheat ([10]; Rate 62 g/ha, scale 0 to 100): 10
- Plant response rating, Wheat [10, 17]: 10
- Plant response rating, Wheat [10, 18]: 20
- Plant response rating, Foxtail, Green ([11]; Rate 62 g/ha, scale 0 to 100): 10
- Plant response rating, Foxtail, Green [11, 17]: 30
- Plant response rating, Foxtail, Green [11, 18]: 50
- Plant response rating, Canarygrass ([12]; Rate 62 g/ha, scale 0 to 100): 0
- Plant response rating, Canarygrass [12, 19]: 0
- Plant response rating, Canarygrass [12, 17]: 20
- Plant response rating, Canarygrass [12, 18]: 20
- Plant response rating, Blackgrass ([13]; Rate 62 g/ha, scale 0 to 100): 0
- Plant response rating, Blackgrass [13, 19]: 0
- Plant response rating, Blackgrass [13, 17]: 20
- Plant response rating, Blackgrass [13, 18]: 40
- Plant response rating, Downy Brome ([14]; Rate 62 g/ha, scale 0 to 100): 20
- Plant response rating, Downy Brome [14, 19]: 40
- Plant response rating, Downy Brome [14, 18]: 40
- Plant response rating, Barley, Winter ([15]; Rate 62 g/ha, scale 0 to 100): 0
- Plant response rating, Barley, Winter [15, 19]: 0
- Plant response rating, Barley, Winter [15, 18]: 20
- Plant response rating, Lambsquarters ([4]; Rate 62 g/ha, scale 0 to 100): 75
- Plant response rating, Lambsquarters [4, 17]: 95
- Plant response rating, Lambsquarters [4, 18]: 100
- Plant response rating, Wild Oat (wild oat (Avena fatua); Rate 62 g/ha, scale 0 to 100): 30
- Plant response rating, Wild Oat (wild oat (Avena fatua); [17]): 30
- Plant response rating, Wild Oat (wild oat (Avena fatua); [18]): 30
- Plant response rating, Ragweed, Common [5, 18]: 90
- Plant response rating, Windgrass ([16]; Rate 62 g/ha, scale 0 to 100): 20
- Plant response rating, Windgrass [16, 17]: 40
- Plant response rating, Windgrass [16, 18]: 60

SMILES: Cc1cc(C)nc(N2CCC(n3ccc(C(C)(C)C)n3)C2=O)c1 (stereo not shown) [Compound 138]
- Plant response rating, Flatsedge [6]: 90
- Plant response rating, Ducksalad [7]: 90
- Plant response rating, Rice (rice (Oryza saliva)): 90
- Plant response rating, Barnyardgrass [8]: 100

SMILES: CCC(C)c1ccn(C2CCN(c3ccc(Cl)c(OC)c3)C2=O)n1 (stereo not shown) [Compound 119]
- Plant response rating, Cupgrass, Woolly ([1]; Rate 62 g/ha, scale 0 to 100): 0
- Plant response rating, Cupgrass, Woolly [1, 17]: 0
- Plant response rating, Cupgrass, Woolly [1, 18]: 20
- Plant response rating, Johnsongrass ([2]; Rate 62 g/ha, scale 0 to 100): 0
- Plant response rating, Johnsongrass [2, 17]: 0
- Plant response rating, Johnsongrass [2, 18]: 0
- Plant response rating, Johnsongrass ([2]; rate not given, scale 0 to 100): 0
- Plant response rating, Lambsquarters ([4]; Rate 62 g/ha, scale 0 to 100): 90
- Plant response rating, Lambsquarters [4, 17]: 90
- Plant response rating, Lambsquarters [4, 18]: 100
